Data as given in ChEMBL document CHEMBL1136937, “Discovery of a potent class I selective ketone histone deacetylase inhibitor with antitumor activity in vivo and optimized pharmacokinetic properties” (J Med Chem, 2009).

Columns and labels:
[1] = target: Histone deacetylase 1 (Homo sapiens, UniProt Q13547)
Description: Inhibition of human C-terminal FLAG-tagged HDAC1 in HEK293 cells

[2] = tested on: HeLa; assay: Antiproliferative activity against human P53-deficient HeLa cells after 72 hrs by celltiter-blue cell viability assay; type: functional
[3] = (§1) Metabolic stability in human liver microsomes assessed as intrinsic clearance at 1 uM after 90 mins; type: ADME, Microsome; settings: liver microsomes
[4] = Clearance in Sprague-Dawley rat plasma at 3 mg/kg, iv and 3 mg/kg, po; type: ADME, organism-based
[5] = Metabolic stability in dog liver microsomes assessed as intrinsic clearance at 1 uM after 90 mins; type: ADME, Canis lupus familiaris, Microsome; settings: for microsomal CLint at 1 µM: liver microsomes
[6] = Metabolic stability in rat liver microsomes assessed as intrinsic clearance at 1 uM after 90 mins; type: ADME, Microsome
[7] = tested on: MCF7; assay: Antiproliferative activity against human MCF7 cells after 72 hrs by celltiter-blue cell viability assay; type: functional
[8] = tested on: G-401; assay: Antiproliferative activity against human G401 cells after 72 hrs by celltiter-blue cell viability assay; type: functional
[9] = tested on: HCT-116; assay: Antiproliferative activity against human P53 expressing HCT116 cells after 72 hrs by celltiter-blue cell viability assay; type: functional
[10] = tested on: Liver microsomes; assay: as §1; type: ADME, Microsome; settings: microsomes, 1.5 h, 1 µM

Sequence of Histone deacetylase 1 (Q13547 whole entry): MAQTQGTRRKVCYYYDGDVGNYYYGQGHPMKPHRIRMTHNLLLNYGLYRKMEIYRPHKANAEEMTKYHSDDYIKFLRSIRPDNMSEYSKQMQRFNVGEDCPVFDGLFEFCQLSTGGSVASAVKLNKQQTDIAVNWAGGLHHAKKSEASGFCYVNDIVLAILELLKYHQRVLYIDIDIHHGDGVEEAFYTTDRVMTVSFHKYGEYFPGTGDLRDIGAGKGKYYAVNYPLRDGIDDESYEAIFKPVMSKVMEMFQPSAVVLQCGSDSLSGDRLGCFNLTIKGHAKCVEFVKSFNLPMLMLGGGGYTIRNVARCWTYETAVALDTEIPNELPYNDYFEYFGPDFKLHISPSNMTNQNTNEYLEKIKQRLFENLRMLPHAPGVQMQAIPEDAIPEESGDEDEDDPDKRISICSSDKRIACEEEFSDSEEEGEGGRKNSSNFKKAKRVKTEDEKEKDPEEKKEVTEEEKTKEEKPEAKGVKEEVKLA

IC50 [1] [nM]	microsomal CLint at 1 µM [3] [µL/min/mg]	clearance [4] [mL/min/kg]	microsomal CLint at 1 µM [5] [µL/min/mg]	microsomal CLint at 1 µM [6] [µL/min/mg]	CL [10] [µL/min/mg]	CL ([5]; microsomes, 1.5 h, 1 µM) [µL/min/mg]	Compound	CC50 [2] [nM]	CC50 [7] [nM]	CC50 [8] [nM]	CC50 [9] [nM]
162	16	20	9	15	–	–	CCC(=O)CCCCC[C@H](NC(=O)C1CN(C)C1)c1ncc(-c2cc(OC)c3ccccc3n2)[nH]1	970	–	–	–
–	–	–	–	–	–	–	O=C(CCCCCCC(=O)Nc1ccccc1)NO [VORINOSTAT]	–	3000	1000	1000
8	18	–	28	34	–	–	CCC(=O)CCCCC[C@H](NC(=O)C1CN(C)C1)c1ncc(-c2cc3ccccc3nc2F)[nH]1	190	–	–	–
–	–	–	–	–	194	194	CC(=O)CCCCC[C@H](NC(=O)C1CCN(C)CC1)c1ncc(-c2ccc3ccccc3c2)[nH]1	300	–	–	–
51	15	59	6	38	–	–	CCC(=O)CCCCC[C@H](NC(=O)CCN(C)C)c1ncc(-c2cc(OC)c3ccccc3n2)[nH]1	500	–	–	–
2	12	–	23	98	–	–	CCC(=O)CCCCC[C@H](NC(=O)C1CCN(C)CC1)c1ncc(-c2ccc3ncccc3c2)[nH]1	200	–	–	–
30	10	36	5	36	–	–	CCC(=O)CCCCC[C@H](NC(=O)C1CCN(C)CC1)c1ncc(-c2cc(OC)c3ccccc3n2)[nH]1	770	–	–	–
–	194	–	194	> 200	–	–	CCC(=O)CCCCC[C@H](NC(=O)C1CCN(C)CC1)c1ncc(-c2ccc3ccccc3c2)[nH]1	210	–	–	–
